Test results from patent US12516364B2, “Device for testing bacterium, and method for testing bacterium” (Hitachi High-Tech Corporation, priority 2018, dated 2026).

System: Escherichia coli
Assay: antibacterial susceptibility determination from microscopic images (luminance value and area of bacteria)
Assay type: cell-based
Conditions: ampicillin 2 μg/mL; 0 to 360 minutes; with or without minimum filter; growth has not occurred over the entire image
Procedure: The test plate 102 has a plurality of wells, and each well holds a medium component that facilitate the growth of bacteria and an antibacterial drug to be tested. After a bacterial solution containing the bacteria to be tested is dispensed to each well, the test plate 102 is introduced into the bacteria test apparatus 100. The bacteria test apparatus 100 is adjusted to a temperature, such as 37° C., at which the bacteria can grow.
The illuminator 101 illuminates the test plate 102 with light. As the illuminator 101, a light source of white light such as a lamp or a light source of light in a specific wavelength range such as an LED may be used. Light passing through each well of the test plate 102 is condensed by the objective lens 103 and measured as an image by the imager 104. […] Further, images of a plurality of points in each well may be captured, or alternatively, a plurality of images of the inside of the culture solution away from the bottom surface of each well of the test plate 102 may be measured. […]
The determiner 1055 acquires the new feature from the arithmetic unit 1051 and outputs the determination result for each well. […] The mean of luminance values is calculated from the image captured at the preset determination time, and a difference from the mean of luminance values at an initial culture stage is calculated. […]

## CC1(C)S[C@@H]2[C@H](NC(=O)[C@H](N)c3ccccc3)C(=O)N2[C@H]1C(=O)O [ampicillin]
  time variation in mode of luminance values: does not vary
